# Data reported in patent US6040300A, “Method of preventing colon cancer with vitamin D3 analogues” (Arch Development Corporation, priority 1995, dated 2000).
# “Also recorded” adds a separate entry of the source.
# Experiment: Serum calcium (standard colorimetric method)
# Type: in vivo, Male albino Fisher-344 rats
# Details: for hypercalcemia or alterations in serum levels: dietary supplementation, serum phosphorus, 25(OH)D3, 1,25(OH)2D3 also named; for Serum Levels Cas+: mean ± S.E.M.
# Description: Male albino Fisher-344 rats, initially weighing ~90-100 g, were used in these studies. On arrival, the animals were quarantined for 1 wk and then randomly divided into the following six test groups: groups 1 and 2, standard vitamin D-sufficient diet; groups 3 and 4, standard diet supplemented with RO24-5531 (2.50 nmol/kg of feed); and groups 5 and 6, standard vitamin D-sufficient diet. […] Next, the rats in groups 2,4 and 6 were given subcutaneous injections of azoxymethane (AOM, Sigma Chemical Co., St. Louis, Mo.), 15 mg/kg body wt once a wk for 2 wks, while the rats in groups 1,3 and 5 received AOM-vehicle (saline).
# Groups 1 and 2 were then maintained on the standard diet for an additional […]. Groups 3 and 4 were maintained on the RO24-5531 supplemented diets for the initial five wks and then switched to the standard diet without RO24-5531 for an additional 29 wks (initiation arm), whereas groups 5 and 6 were maintained on the standard diet without supplemental RO24-5531 for the initial five wks and then switched to the RO24-5531 supplemented diet for an additional 29 wks (post-initiation arm).
# All rats were sacrificed in the non-fasting state after 34 wks on these protocols between 9 a.m. and 11 a.m. and sera obtained for measurement of calcium, phosphate, 25(OH)D3 and 1α,25(OH)2 D3 levels. The rats' colons were removed, opened, washed with normal saline and examined macroscopically for the presence of tumors. Resected tumors were weighed, and were fixed in 10% buffered formalin for microscopic examination. After formalin fixation, tissue specimens were paraffin-embedded, sectioned, and stained with hematoxylin and eosin as described previously (Sitrin et al., 1991), for light microscopic examination. All specimens were evaluated by a pathologist who was unaware of the dietary or AOM treatment history. Macroscopic and microscopic lesions were classified as either benign (adenoma) or malignant (adenocarcinoma).
# Serum calcium and phosphorus were measured by standard colorimetric methods (Kessler and Wolfman, Clin. Chem. 10:686-703, 1964). Serum 25(OH)D3 levels were measured by radioimmunoassay, using a kit and procedure supplied by Incstar (Stillwater, Minn.). Serum 1α,25(OH)2 D3 levels were assayed by a non-equilibrium competitive protein-binding assay based on a calf thymus receptor, using a kit and procedure supplied by Incstar, as previously described (Sitrin et al., 1991).
# Results are expressed as means ±SE of n determinations. Data were analyzed by Fisher's exact test (two-tailed) or analysis of variance (ANOVA) as appropriate (Snedecor and Cochran, Statistical Methods, 1980). Values of p <0.05 were considered statistically significant.
structure (smiles),measurement,setting,value
"C=C1/C(=C\C=C2/CCC[C@]3(C)C([C@H](C)CC#CC(O)(C(F)(F)F)C(F)(F)F)=CC[C@@H]23)C[C@@H](O)C[C@@H]1O [RO24-5531, 26,26,26,27,27,27-hexafluoro-1α,25-dihydroxy-16-ene-23-yne-cholecalciferol]",hypercalcemia or alterations in serum levels,,did not result in hypercalcemia
same,hypercalcemia or alterations in serum levels,"listed as 1α,25-dihydroxy-16-ene-23-yne-26,27-hexafluorocholecalciferol","does not induce hypercalcemia or alterations in the serum levels of phosphorus, 25(OH)D3, or 1,25(OH)2D3; also recorded: did not induce hypercalcemia or alterations in the serum levels of phosphorus, 25(OH)D3 or 1,25(OH)2D3"
same,Serum Levels Cas+,"group 3: RO24-5531/SD, no AOM, n=10",11.3 ± 0.1 mg/dL
same,Serum Levels Cas+,"group 4: RO24-5531/SD (initiation arm), AOM, n=6",10.1 ± 0.4 mg/dL
same,Serum Levels Cas+,"group 5: SD/RO24-5531, no AOM, n=14",10.3 ± 0.4 mg/dL
same,Serum Levels Cas+,"group 6: SD/RO24-5531 (post-initiation arm), AOM, n=8",10.1 ± 0.5 mg/dL
same,effect on serum levels of calcium,groups 4 (initiation arm) and 6 (post-initiation arm),"significantly altered the serum levels of calcium, phosphorus or 25(OH)D3"
